Data reported in ChEMBL document CHEMBL1201862, “PubChem BioAssay data set” (2004).
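The compound was tested at five concentrations on cells cultured in 96-well plates, with a 48-hour exposure period. The concentration for 50% growth inhibition is given as GI50.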 The source made the active and inactive calls. No stated cut-off is given here; in the data, active = GI50 up to about 1.1 µM and inactive = higher.

What was measured:
Test in all cases: NCI tumour cell line growth inhibition, 48 h
RXF 393 = test system: RXF 393
SF-268 = test system: SF-268
Hs-578T = test system: Hs-578T
786-0 = test system: 786-0
T47D = test system: T47D
NCI/ADR-RES = test system: NCI/ADR-RES
MDA-MB-435 = test system: MDA-MB-435
MOLT-4 = test system: MOLT-4
NCI-H226 = test system: NCI-H226
M14 = test system: M14
OVCAR-4 = test system: OVCAR-4
DU-145 = test system: DU-145
UACC-257 = test system: UACC-257
EKVX = test system: EKVX
HT-29 = test system: HT-29
CAKI-1 = test system: CAKI-1
HCT-15 = test system: HCT-15
HCT-116 = test system: HCT-116
IGROV-1 = test system: IGROV-1
SK-MEL-28 = test system: SK-MEL-28
HOP-62 = test system: HOP-62
MDA-N = test system: MDA-N
RPMI-8226 = test system: RPMI-8226
MDA-MB-231 = test system: MDA-MB-231
SNB-19 = test system: SNB-19
MCF7 = test system: MCF7
Malme-3M = test system: Malme-3M
NCI-H460 = test system: NCI-H460
SR = test system: SR
ACHN = test system: ACHN
KM12 = test system: KM12
NCI-H23 = test system: NCI-H23
TK-10 = test system: TK-10
SN12C = test system: SN12C
OVCAR-5 = test system: OVCAR-5
UACC-62 = test system: UACC-62
NCI-H522 = test system: NCI-H522
SK-MEL-5 = test system: SK-MEL-5
PC-3 = test system: PC-3
LOX IMVI = test system: LOX IMVI
HCC 2998 = test system: HCC 2998
K562 = test system: K562
COLO 205 = test system: COLO 205
U-251 = test system: U-251
HOP-92 = test system: HOP-92
SW-620 = test system: SW-620
OVCAR-3 = test system: OVCAR-3
SF-295 = test system: SF-295
OVCAR-8 = test system: OVCAR-8
SF-539 = test system: SF-539
SK-OV-3 = test system: SK-OV-3
HL-60 = test system: HL-60
CCRF-CEM = test system: CCRF-CEM
SNB-75 = test system: SNB-75
A549 = test system: A549
A498 = test system: A498
UO-31 = test system: UO-31

SMILES: Cc1ccc(CC[PH](=O)CCc2ccc(C)nc2)cn1
- GI50 (RXF 393): > 100 µM (inactive)
- GI50 (SF-268): > 100 µM (inactive)
- GI50 (Hs-578T): > 100 µM (inactive)
- GI50 (786-0): > 100 µM (inactive)
- GI50 (T47D): > 100 µM (inactive)
- GI50 (NCI/ADR-RES): > 100 µM (inactive)
- GI50 (MDA-MB-435): > 100 µM (inactive)
- GI50 (MOLT-4): > 100 µM (inactive)
- GI50 (NCI-H226): > 100 µM (inactive)
- GI50 (M14): > 100 µM (inactive)
- GI50 (OVCAR-4): > 100 µM (inactive)
- GI50 (DU-145): > 100 µM (inactive)
- GI50 (UACC-257): > 100 µM (inactive)
- GI50 (EKVX): > 100 µM (inactive)
- GI50 (HT-29): > 100 µM (inactive)
- GI50 (CAKI-1): > 100 µM (inactive)
- GI50 (HCT-15): > 100 µM
- GI50 (HCT-116): > 100 µM (inactive)
- GI50 (IGROV-1): > 100 µM (inactive)
- GI50 (SK-MEL-28): > 100 µM (inactive)
- GI50 (HOP-62): > 100 µM (inactive)
- GI50 (MDA-N): > 100 µM (inactive)
- GI50 (RPMI-8226): > 100 µM (inactive)
- GI50 (MDA-MB-231): > 100 µM (inactive)
- GI50 (SNB-19): > 100 µM (inactive)
- GI50 (MCF7): > 100 µM (inactive)
- GI50 (Malme-3M): > 100 µM (inactive)
- GI50 (NCI-H460): > 100 µM (inactive)
- GI50 (SR): > 100 µM (inactive)
- GI50 (ACHN): > 100 µM (inactive)
- GI50 (KM12): > 100 µM (inactive)
- GI50 (NCI-H23): > 100 µM (inactive)
- GI50 (TK-10): > 100 µM (inactive)
- GI50 (SN12C): > 100 µM (inactive)
- GI50 (OVCAR-5): > 100 µM (inactive)
- GI50 (UACC-62): > 100 µM (inactive)
- GI50 (NCI-H522): > 100 µM (inactive)
- GI50 (SK-MEL-5): > 100 µM (inactive)
- GI50 (PC-3): > 100 µM (inactive)
- GI50 (LOX IMVI): > 100 µM (inactive)
- GI50 (HCC 2998): > 100 µM (inactive)
- GI50 (K562): > 100 µM (inactive)
- GI50 (COLO 205): > 100 µM (inactive)
- GI50 (U-251): > 100 µM (inactive)
- GI50 (HOP-92): > 100 µM (inactive)
- GI50 (SW-620): > 100 µM (inactive)
- GI50 (OVCAR-3): > 100 µM (inactive)
- GI50 (SF-295): > 100 µM (inactive)
- GI50 (OVCAR-8): > 100 µM (inactive)
- GI50 (SF-539): > 100 µM (inactive)
- GI50 (SK-OV-3): > 100 µM (inactive)
- GI50 (HL-60): > 100 µM (inactive)
- GI50 (CCRF-CEM): > 100 µM (inactive)

SMILES: C=CCc1c(O)c2nsnc2c2nsnc12
- GI50 (RXF 393): > 10 µM (inactive)
- GI50 (SF-268): > 10 µM (inactive)
- GI50 (786-0): > 10 µM (inactive)
- GI50 (T47D): > 10 µM (inactive)
- GI50 (SNB-75): > 10 µM (inactive)
- GI50 (MOLT-4): > 10 µM (inactive)
- GI50 (M14): > 10 µM (inactive)
- GI50 (DU-145): > 10 µM (inactive)
- GI50 (UACC-257): > 10 µM (inactive)
- GI50 (EKVX): > 10 µM (inactive)
- GI50 (HT-29): > 10 µM (inactive)
- GI50 (CAKI-1): > 10 µM (inactive)
- GI50 (HCT-15): > 10 µM
- GI50 (IGROV-1): > 10 µM (inactive)
- GI50 (SK-MEL-28): > 10 µM (inactive)
- GI50 (HOP-62): > 10 µM (inactive)
- GI50 (MDA-N): > 10 µM (inactive)
- GI50 (RPMI-8226): > 10 µM (inactive)
- GI50 (MDA-MB-231): > 10 µM (inactive)
- GI50 (MCF7): > 10 µM (inactive)
- GI50 (Malme-3M): > 10 µM (inactive)
- GI50 (SR): > 10 µM (inactive)
- GI50 (KM12): > 10 µM (inactive)
- GI50 (NCI-H23): > 10 µM (inactive)
- GI50 (TK-10): > 10 µM (inactive)
- GI50 (SN12C): > 10 µM (inactive)
- GI50 (UACC-62): > 10 µM (inactive)
- GI50 (SK-MEL-5): > 10 µM (inactive)
- GI50 (A549): > 10 µM (inactive)
- GI50 (PC-3): > 10 µM (inactive)
- GI50 (LOX IMVI): > 10 µM (inactive)
- GI50 (HCC 2998): > 10 µM (inactive)
- GI50 (K562): > 10 µM (inactive)
- GI50 (COLO 205): > 10 µM (inactive)
- GI50 (SW-620): > 10 µM (inactive)
- GI50 (SF-295): > 10 µM (inactive)
- GI50 (OVCAR-8): > 10 µM (inactive)
- GI50 (SK-OV-3): > 10 µM (inactive)
- GI50 (HL-60): > 10 µM (inactive)
- GI50 (CCRF-CEM): > 10 µM (inactive)

SMILES: Fc1ccc2c3c([nH]c2c1)CCN(Cc1ccccc1)C3
- GI50 (RXF 393): 16 µM (inactive)
- GI50 (SF-268): 21 µM (inactive)
- GI50 (Hs-578T): 12 µM (inactive)
- GI50 (786-0): 16.1 µM (inactive)
- GI50 (T47D): 14.7 µM (inactive)
- GI50 (NCI/ADR-RES): 28.1 µM (inactive)
- GI50 (MDA-MB-435): 17.5 µM (inactive)
- GI50 (SNB-75): 16.9 µM (inactive)
- GI50 (MOLT-4): 17.3 µM (inactive)
- GI50 (NCI-H226): 19 µM (inactive)
- GI50 (A498): 17.8 µM (inactive)
- GI50 (M14): 17.3 µM (inactive)
- GI50 (OVCAR-4): 24.6 µM (inactive)
- GI50 (DU-145): 22.3 µM (inactive)
- GI50 (UACC-257): 15.3 µM (inactive)
- GI50 (EKVX): 20.9 µM (inactive)
- GI50 (HT-29): 20.4 µM (inactive)
- GI50 (HCT-15): 21.1 µM
- GI50 (HCT-116): 18.6 µM (inactive)
- GI50 (IGROV-1): 20.7 µM (inactive)
- GI50 (SK-MEL-28): 16.7 µM (inactive)
- GI50 (HOP-62): 15 µM (inactive)
- GI50 (RPMI-8226): 27.7 µM (inactive)
- GI50 (MDA-MB-231): 24.3 µM (inactive)
- GI50 (SNB-19): 16.6 µM (inactive)
- GI50 (MCF7): 16.7 µM (inactive)
- GI50 (Malme-3M): 18.4 µM (inactive)
- GI50 (NCI-H460): 17.3 µM (inactive)
- GI50 (SR): 18.3 µM (inactive)
- GI50 (ACHN): 22.8 µM (inactive)
- GI50 (KM12): 15.3 µM (inactive)
- GI50 (NCI-H23): 20.9 µM (inactive)
- GI50 (TK-10): > 10 µM (inactive)
- GI50 (SN12C): 19.2 µM (inactive)
- GI50 (OVCAR-5): 19.9 µM (inactive)
- GI50 (UACC-62): 18.2 µM (inactive)
- GI50 (SK-MEL-5): 22.3 µM (inactive)
- GI50 (A549): 22.6 µM (inactive)
- GI50 (LOX IMVI): 16.9 µM (inactive)
- GI50 (HCC 2998): 13.2 µM (inactive)
- GI50 (K562): 18.1 µM (inactive)
- GI50 (COLO 205): 20.5 µM (inactive)
- GI50 (U-251): 19.7 µM (inactive)
- GI50 (HOP-92): 5.33 µM (inactive)
- GI50 (SW-620): 20.1 µM (inactive)
- GI50 (SF-295): 14.7 µM (inactive)
- GI50 (OVCAR-8): 19.7 µM (inactive)
- GI50 (UO-31): 12.2 µM (inactive)
- GI50 (SF-539): 21.7 µM (inactive)
- GI50 (SK-OV-3): 19.2 µM (inactive)
- GI50 (HL-60): 17.3 µM (inactive)
- GI50 (CCRF-CEM): 30.4 µM (inactive)
